Measured values taken from PubChem BioAssay (NCI).
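In this assay, cells in 96-well plates receive the compound at five concentrations for 48 hours. Endpoints are linearly interpolated between the surrounding concentrations. Here, GI50 denotes the concentration required for 50% inhibition of growth. TGI denotes the concentration required for complete inhibition of growth.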

Columns and labels:
Assay in all cases: DTP human tumour cell line panel, 48 h
786-0 renal = test system: 786-0 renal
A498 renal = test system: A498 renal
A549 NSCLC = test system: A549 NSCLC
ACHN renal = test system: ACHN renal
CAKI-1 renal = test system: CAKI-1 renal
CCRF-CEM leukemia = test system: CCRF-CEM leukemia
COLO 205 colon = test system: COLO 205 colon
DLD-1 colon = test system: DLD-1 colon
DMS 114 small cell lung = test system: DMS 114 small cell lung
DMS 273 small cell lung = test system: DMS 273 small cell lung
EKVX NSCLC = test system: EKVX NSCLC
HCC-2998 colon = test system: HCC-2998 colon
HCT-116 colon = test system: HCT-116 colon
HCT-15 colon = test system: HCT-15 colon
HL-60(TB) leukemia = test system: HL-60(TB) leukemia
HOP-18 NSCLC = test system: HOP-18 NSCLC
HOP-62 NSCLC = test system: HOP-62 NSCLC
HOP-92 NSCLC = test system: HOP-92 NSCLC
HT29 colon = test system: HT29 colon
IGROV1 ovarian = test system: IGROV1 ovarian
K-562 leukemia = test system: K-562 leukemia
KM12 colon = test system: KM12 colon
KM20L2 colon = test system: KM20L2 colon
LOX IMVI melanoma = test system: LOX IMVI melanoma
LXFL 529 NSCLC = test system: LXFL 529 NSCLC
M14 melanoma = test system: M14 melanoma
M19-MEL melanoma = test system: M19-MEL melanoma
MALME-3M melanoma = test system: MALME-3M melanoma
MOLT-4 leukemia = test system: MOLT-4 leukemia
NCI-H226 lung = test system: NCI-H226 lung
NCI-H23 lung = test system: NCI-H23 lung
NCI-H460 lung = test system: NCI-H460 lung
NCI-H522 lung = test system: NCI-H522 lung
OVCAR-3 ovarian = test system: OVCAR-3 ovarian
OVCAR-4 ovarian = test system: OVCAR-4 ovarian
OVCAR-5 ovarian = test system: OVCAR-5 ovarian
OVCAR-8 ovarian = test system: OVCAR-8 ovarian
RPMI-8226 leukemia = test system: RPMI-8226 leukemia
RXF 393 renal = test system: RXF 393 renal
RXF-631 renal = test system: RXF-631 renal
SF-268 CNS = test system: SF-268 CNS
SF-295 CNS = test system: SF-295 CNS
SF-539 CNS = test system: SF-539 CNS
SK-MEL-2 melanoma = test system: SK-MEL-2 melanoma
SK-MEL-28 melanoma = test system: SK-MEL-28 melanoma
SK-MEL-5 melanoma = test system: SK-MEL-5 melanoma
SK-OV-3 ovarian = test system: SK-OV-3 ovarian
SN12C renal = test system: SN12C renal
SNB-19 CNS = test system: SNB-19 CNS
SNB-75 CNS = test system: SNB-75 CNS
SNB-78 CNS = test system: SNB-78 CNS
SR leukemia = test system: SR leukemia
SW-620 colon = test system: SW-620 colon
TK-10 renal = test system: TK-10 renal
U251 CNS = test system: U251 CNS
UACC-257 melanoma = test system: UACC-257 melanoma
UACC-62 melanoma = test system: UACC-62 melanoma
UO-31 renal = test system: UO-31 renal
XF 498 CNS = test system: XF 498 CNS

SMILES: COc1cc(-c2cc(CCC(=O)Nc3ccccc3[N+](=O)[O-])n(-c3ccc([N+](=O)[O-])cc3[N+](=O)[O-])n2)ccc1O
- GI50 (786-0 renal): > 100 µM
- TGI (786-0 renal): > 100 µM
- GI50 (A498 renal): > 100 µM
- TGI (A498 renal): > 100 µM
- GI50 (A549 NSCLC): > 100 µM
- TGI (A549 NSCLC): > 100 µM
- GI50 (ACHN renal): > 10 µM
- TGI (ACHN renal): > 100 µM
- GI50 (CAKI-1 renal): > 100 µM
- TGI (CAKI-1 renal): > 100 µM
- GI50 (CCRF-CEM leukemia): > 100 µM
- TGI (CCRF-CEM leukemia): > 100 µM
- GI50 (COLO 205 colon): > 100 µM
- TGI (COLO 205 colon): > 100 µM
- GI50 (DLD-1 colon): > 100 µM
- TGI (DLD-1 colon): > 100 µM
- GI50 (DMS 114 small cell lung): > 100 µM
- TGI (DMS 114 small cell lung): > 100 µM
- TGI (DMS 273 small cell lung): > 10 µM
- GI50 (EKVX NSCLC): > 100 µM
- TGI (EKVX NSCLC): > 100 µM
- GI50 (HCC-2998 colon): > 100 µM
- TGI (HCC-2998 colon): > 100 µM
- GI50 (HCT-116 colon): > 100 µM
- TGI (HCT-116 colon): > 100 µM
- GI50 (HCT-15 colon): > 10 µM
- TGI (HCT-15 colon): > 100 µM
- GI50 (HL-60(TB) leukemia): > 100 µM
- TGI (HL-60(TB) leukemia): > 100 µM
- TGI (HOP-18 NSCLC): > 10 µM
- GI50 (HOP-62 NSCLC): > 100 µM
- TGI (HOP-62 NSCLC): > 100 µM
- GI50 (HOP-92 NSCLC): > 100 µM
- TGI (HOP-92 NSCLC): > 100 µM
- TGI (HT29 colon): > 10 µM
- GI50 (IGROV1 ovarian): > 100 µM
- TGI (IGROV1 ovarian): > 100 µM
- GI50 (K-562 leukemia): > 10 µM
- TGI (K-562 leukemia): > 100 µM
- TGI (KM12 colon): > 10 µM
- GI50 (KM20L2 colon): > 100 µM
- TGI (KM20L2 colon): > 100 µM
- GI50 (LOX IMVI melanoma): > 100 µM
- TGI (LOX IMVI melanoma): > 100 µM
- GI50 (LXFL 529 NSCLC): > 10 µM
- TGI (LXFL 529 NSCLC): > 100 µM
- GI50 (M14 melanoma): > 100 µM
- TGI (M14 melanoma): > 100 µM
- GI50 (M19-MEL melanoma): > 100 µM
- TGI (M19-MEL melanoma): > 100 µM
- GI50 (MALME-3M melanoma): > 100 µM
- TGI (MALME-3M melanoma): > 100 µM
- GI50 (MOLT-4 leukemia): > 100 µM
- TGI (MOLT-4 leukemia): > 100 µM
- GI50 (NCI-H226 lung): > 100 µM
- TGI (NCI-H226 lung): > 100 µM
- GI50 (NCI-H23 lung): > 100 µM
- TGI (NCI-H23 lung): > 100 µM
- GI50 (NCI-H460 lung): > 100 µM
- TGI (NCI-H460 lung): > 100 µM
- GI50 (NCI-H522 lung): > 100 µM
- TGI (NCI-H522 lung): > 100 µM
- TGI (OVCAR-3 ovarian): > 10 µM
- GI50 (OVCAR-4 ovarian): > 100 µM
- TGI (OVCAR-4 ovarian): > 100 µM
- GI50 (OVCAR-5 ovarian): > 100 µM
- TGI (OVCAR-5 ovarian): > 100 µM
- GI50 (OVCAR-8 ovarian): > 100 µM
- TGI (OVCAR-8 ovarian): > 100 µM
- GI50 (RPMI-8226 leukemia): > 100 µM
- TGI (RPMI-8226 leukemia): > 100 µM
- GI50 (RXF 393 renal): > 100 µM
- TGI (RXF 393 renal): > 100 µM
- GI50 (RXF-631 renal): > 100 µM
- TGI (RXF-631 renal): > 100 µM
- GI50 (SF-268 CNS): > 100 µM
- TGI (SF-268 CNS): > 100 µM
- TGI (SF-295 CNS): > 10 µM
- GI50 (SF-539 CNS): > 100 µM
- TGI (SF-539 CNS): > 100 µM
- GI50 (SK-MEL-2 melanoma): > 100 µM
- TGI (SK-MEL-2 melanoma): > 100 µM
- GI50 (SK-MEL-28 melanoma): > 100 µM
- TGI (SK-MEL-28 melanoma): > 100 µM
- GI50 (SK-MEL-5 melanoma): > 100 µM
- TGI (SK-MEL-5 melanoma): > 100 µM
- GI50 (SK-OV-3 ovarian): > 100 µM
- TGI (SK-OV-3 ovarian): > 100 µM
- GI50 (SN12C renal): > 100 µM
- TGI (SN12C renal): > 100 µM
- GI50 (SNB-19 CNS): > 100 µM
- TGI (SNB-19 CNS): > 100 µM
- GI50 (SNB-75 CNS): > 10 µM
- TGI (SNB-75 CNS): > 100 µM
- GI50 (SNB-78 CNS): > 100 µM
- TGI (SNB-78 CNS): > 100 µM
- TGI (SR leukemia): > 10 µM
- GI50 (SW-620 colon): > 100 µM
- TGI (SW-620 colon): > 100 µM
- GI50 (TK-10 renal): > 100 µM
- TGI (TK-10 renal): > 100 µM
- GI50 (U251 CNS): > 100 µM
- TGI (U251 CNS): > 100 µM
- TGI (UACC-257 melanoma): > 10 µM
- GI50 (UACC-62 melanoma): > 10 µM
- TGI (UACC-62 melanoma): > 100 µM
- GI50 (UO-31 renal): > 100 µM
- TGI (UO-31 renal): > 100 µM
- TGI (XF 498 CNS): > 100 µM
